Molecules are shown by their SMILES. Where two headings read alike, the source gives them in different places.

The test system of test [1] is V106A-Y181C-RTV. The test is described as follows: Phenotypic susceptibility assay, V106A-Y181C-RTV. The class given is cell-based, HIV-1. The conditions noted are these: site directed mutant. The text has this:
(§1) The resistance test vectors containing a functional luciferase gene cassette were constructed and host cells were transfected with the resistance test vector DNA. The resistant test vectors contained patient-derived reverse transcriptase and protease sequences that were either susceptible or resistant to the antiretroviral agents, such as nucleoside reverse transcriptase inhibitors, non-nucleoside reverse transcriptase inhibitors and protease inhibitors. The resistance test vector viral particles produced by transfecting the resistance test vector DNA into host cells, either in the presence or absence of protease inhibitors, were used to infect target host cells grown either in the absence of NRTI or NNRTI or in the presence of increasing concentrations of the drug. The amount of luciferase activity produced in infected target host cells in the presence of drug was compared to the amount of luciferase produced in infected target host cells in the absence of drug. Drug resistance was measured as the amount of drug required to inhibit by 50% the luciferase activity detected in the absence of drug (inhibitory concentration 50%, IC50). The IC50 values were determined by plotting percent drug inhibition vs. log10 drug concentration.
(§2) Host cells were seeded in 10-cm-diameter dishes and were transfected several days after plating with resistance test vector plasmid DNA and the envelope expression vector. Transfections were performed using a calcium-phosphate precipitation procedure. The cell culture media containing the DNA precipitate was replaced with fresh medium, from one to 24 hours, after transfection. Cell culture media containing resistance test vector viral particles was harvested one to four days after transfection and was passed through a […] filter before being stored at −80° C. HIV capsid protein (p24) levels in the harvested cell culture media were determined by an EIA method as described by the manufacturer (SIAC; Frederick, Md.). […] The inhibitory effect of the drug was determined using the following equation: […]

Test [2] concerns E138A-Y188L-RTV. The test can be described thus: Phenotypic susceptibility assay, E138A-Y188L-RTV. The class given is cell-based, HIV-1. The conditions noted are these: site directed mutant.
Excerpt: as §1, with “Drug resistance was measured as the amount of drug required to inhibit by 50% the luciferase activity detected in the absence of drug (inhibitory concentration 50%, IC50).” left out
Host cells were seeded in 10-cm-diameter dishes and were transfected several days after plating with resistance test vector plasmid DNA and the envelope expression vector. […] HIV capsid protein (p24) levels in the harvested cell culture media were determined by an EIA method as described by the manufacturer (SIAC; Frederick, Md.). […] The inhibitory effect of the drug was determined using the following equation: […]
The E138A mutation alone and in combination with Y188L was introduced into resistance test vectors using the megaprimer method for site-directed mutagenesis (Sakar and Sommar, Ibid.). Resistance test vectors containing the E138A mutation (E138A-RTV) or the E138 mutation along with the […] mutation (E138A-Y188L-RTV) were then tested using the phenotypic assay described earlier and the results were compared to those determined using a genetically defined resistance test vector that was wild type at positions 188 and 138.

Test [3] relates to K101E-G190S-RTV. The test can be described thus: Phenotypic susceptibility assay, K101E-G190S-RTV. Type of test: cell-based, HIV-1.
Excerpt: as §1
as §2, with “Md.). Before infection, target cells (293 and 293/T) were plated in cell culture media. Control infections were performed using cell culture media from mock transfections (no DNA) or transfections containing the resistance test vector plasmid DNA without the envelope expression plasmid. One to three or more days after infection the media was removed and cell lysis buffer (Promega) was added to each well.” for “Md.).”
(§3) where RLUluc [drug] is the relative light unit of luciferase activity in infected cells in the presence of drug and RLUluc is the Relative Light Unit of luciferase activity in infected cells in the absence of drug. IC50 values were obtained from the sigmoidal curves that were generated from the data by plotting the percent inhibition of luciferase activity vs. the log10 drug concentration.
The K101E and G190S mutations were introduced alone and in combination into resistance test vectors using the mega-primer method for site-directed mutagenesis (Sakar and Sommar, Ibid.). Resistance test vectors containing the K101E mutation (K101E-RTV), the G190S mutation (G190S-RTV) were then tested using the phenotypic assay described earlier and the results were compared to those determined using a genetically defined resistance test vector that was wild type at positions 101 and 190.

In test [4] the test system is RTV-B clone 1 (patient sample B). The test can be described thus: Phenotypic susceptibility assay, RTV-B clone 1. The class given is cell-based, HIV-1. The conditions noted are these: values <1 = increased susceptibility.
Excerpt: as §1, §2

The subject of test [5] is T66I integrase site-directed mutant resistance test vector. The test can be described thus: Phenotypic susceptibility assay, T66I integrase mutant vector. Type of test: cell-based, HIV. The conditions noted are these: {}. The procedure: (§4) Transfections were performed using a calcium-phosphate precipitation procedure. […] Cell lysates were assayed for luciferase activity (FIG. 3).
(§5) The drug inhibition curves are shown in (FIG. 3).
A resistance test vector containing the threonine to isoleucine mutation at position 66 of the integrase protein (T66I) was constructed and tested using the phenotypic assay described earlier.

The subject of test [6] is K101E-RTV (HIV reverse transcriptase K101E). The test can be described thus: Phenotypic susceptibility assay, K101E-RTV. Type of test: cell-based, HIV-1.
Excerpt: as §1
as §2, with “Md.). Before infection, target cells (293 and 293/T) were plated in cell culture media. Control infections were performed using cell culture media from mock transfections (no DNA) or transfections containing the resistance test vector plasmid DNA without the envelope expression plasmid. One to three or more days after infection the media was removed and cell lysis buffer (Promega) was added to each well.” for “Md.).”
as §3
The K101E and G190S mutations were introduced alone and in combination into resistance test vectors using the mega-primer method for site-directed mutagenesis (Sakar and Sommar, Ibid.). Resistance test vectors containing the K101E mutation (K101E-RTV), the G190S mutation (G190S-RTV) were then tested using the phenotypic assay described earlier and the results were compared to those determined using a genetically defined resistance test vector that was wild type at positions 101 and 190. […]

For test [7], the system named is V106A-Y181C-F227L-RTV. The test is described as follows: Phenotypic susceptibility assay, V106A-Y181C-F227L-RTV. Type of test: cell-based, HIV-1. The conditions noted are these: site directed mutant.
Excerpt: as §1, §2

Test [8] has as its system V106A-V189L-RTV. The test is described as follows: Phenotypic susceptibility assay, V106A-V189L-RTV. Type of test: cell-based, HIV-1. The conditions noted are these: site directed mutant.
Excerpt: as §1, §2

Test [9] deals with RTV-1060 (patient sample 98-1060). The test is described as follows: Phenotypic susceptibility assay, RTV-1060. Type of test: cell-based, HIV-1. The conditions noted are these: RTV-1060, patient-derived pool. The procedure: as §4, §5
This patient had been previously treated with d4T […] , indinavir (a PRI and efavirenz (an NNRTI). A second resistance test vector was constructed as described in Example 1 from a patient sample designated 98-1060. This patient had been previously treated with d4T […]. indinavir (a PRI) and efavirnez (an NNRTI). Isolation of viral RNA and RT/PCR was used to generate a patient derived segment that comprised viral sequences coding for all of PR and aa 1-313 of RT. The PDS was inserted into an indicator gene viral vector to generate resistance test vectors designated RTV-644 and RTV-1060. RTV-644 and RTV-1060 were then tested in a phenotypic assay to determine accurately and quantitatively the level of susceptibility to a panel of anti-retroviral drugs. […] An IC50 was determined for the resistance test vector pool for each drug tested. The pattern of susceptiblity to all of the drugs tested was examined and compared to known patterns of susceptibility.

For test [10], the system named is V106A-RTV (HIV reverse transcriptase V106A). The test can be described thus: Phenotypic susceptibility assay, V106A-RTV. The class given is cell-based, HIV-1. The conditions noted are these: site directed mutant.
Excerpt: as §1, §2

The test system of test [11] is G190S-RTV (HIV reverse transcriptase G190S). The test is described as follows: Phenotypic susceptibility assay, G190S-RTV. Type of test: cell-based, HIV-1. The conditions noted are these: for change in susceptibility compared to wild type reference RTV: Example 5; for fold change in susceptibility compared to wild type control RTV: values <1 = increased susceptibility.
Excerpt: as §1
as §2, with “Md.). Before infection, target cells (293 and 293/T) were plated in cell culture media. Control infections were performed using cell culture media from mock transfections (no DNA) or transfections containing the resistance test vector plasmid DNA without the envelope expression plasmid. One to three or more days after infection the media was removed and cell lysis buffer (Promega) was added to each well.” for “Md.).”
as §3

Where [12] appears, read: values <1 = increased susceptibility.
[13] abbreviates: printed in the K101E-RTV sentence of b302, second set of values.

As for `CC(C)Nc1cccnc1N1CCN(C(=O)c2cc3cc(NS(C)(=O)=O)ccc3[nH]2)CC1` [delavirdine], the “fold loss of susceptibility compared to wild type control RTV” value (“fold loss of susceptibility” below) in test [1] came out at 100 fold; in [2], 75 fold; in test [6] ({}), 5 fold; in test [7], 50 fold; in test [8] it was 3 fold; in [10] it was 5 fold. Also, the “fold change in susceptibility compared to wild type control RTV” value (“fold change … to wild type control RTV” for short) is given as 1.4 fold in test [3], 0.5 fold in test [3] (setting [12]) and 0.5 fold in test [11]. Also, the “fold change in susceptibility (IC50)” value in test [4] came out at 0.55 fold. Besides, the “increase in susceptibility compared to wild type control RTV” value (“increase in susceptibility” for short) in [5] is listed as 8-10 fold. In addition, the “fold decrease in susceptibility (IC50)” value in test [9] was found to be 1.5 fold. Besides, in test [11], the “change in susceptibility compared to wild type reference RTV” value is on record as “slightly more susceptible to delavirdine”.

Regarding `O=C1Nc2ccc(Cl)cc2[C@@](C#CC2CC2)(C(F)(F)F)O1` [efavirenz], the “fold loss of susceptibility” value in [1] is on record as 4 fold; in [2], 88 fold; in test [6] (setting [13]), 30 fold; in test [6] ({}) it was 5 fold; in test [7], 12 fold; in [8], 1 fold. In addition, in test [10], the “fold loss of susceptibility” value is listed as 1.7 fold. Further, the “fold change … to wild type control RTV” value in test [3] is given as “greater than 250 fold”; in test [3] (setting [12]), 7.6 fold; in test [11] it was 8 fold. Moreover, the “fold change in susceptibility (IC50)” value in test [4] worked out at 250 fold. In [5], the “increase in susceptibility” value is 8-10 fold. In [9], the “fold decrease in susceptibility (IC50)” value came out at 900 fold.

Consider `Cc1ccnc2c1NC(=O)c1cccnc1N2C1CC1` [nevirapine], for which the “fold loss of susceptibility” value in [1] is given as “greater than 800 fold”; in test [2] it was “greater than 800 fold”; in test [6] (setting [13]), 55 fold; in test [6] ({}), 12 fold; in test [7], “greater than 800 fold”; in test [8], 50 fold. For the same compound, the “fold loss of susceptibility” value in test [10] turned out to be 60 fold. The “fold change … to wild type control RTV” value in test [3] was “greater than 800 fold”; in test [3] (setting [12]), 75 fold; in [11] it was 75 fold. Moreover, the “fold change in susceptibility (IC50)” value in test [4] turned out to be 640 fold. In addition, the “increase in susceptibility” value in test [5] is listed as 8-10 fold. Besides, the “fold decrease in susceptibility (IC50)” value in [9] was “greater than 800 fold”. Moreover, in [11], the “change in susceptibility compared to wild type reference RTV” value is “markedly less susceptible to nevirapine”.
